Laboratory results taken from patent publication US20100048462A1, “TRUNCATED PTH PEPTIDES WITH A CYCLIC CONFORMATION” (Zealand Pharma A/S, priority 2006, published 2010).
Bridge positions count the residues as written; N and C are the ends. Square brackets hold non-standard residues; d marks the D form. Peptide text beside a SMILES is read from it. hArg = N=C(N)NCCCC[C@H](N)C(=O)O; Ac5c = NC1(C(=O)O)CCCC1; Aib = CC(C)(N)C(=O)O

Biological target: CYP2D6 (Homo sapiens, UniProt P10635)
Experiment: CYP2D6 inhibition in pooled human liver microsomes
Type: in vitro ADME
Design: Pooled human liver microsomes (HLM, final concentration 0.05 mg protein/mL); tissue BD Biosciences 452161; host or cells: pooled human liver microsomes
In short: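 Pooled HLM (0.05 mg/mL) in 0.1 M KPi pH 7.4 with 5 μM dextromethorphan and 10 μM test compound, preincubated 5 min at 37 °C, then started with NADPH-regenerating system for 5 min. Dextrorphan quantified by LC/MS/MS; activity expressed as % of vehicle; <70% considered significant.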

Sequence of CYP2D6 (P10635 whole entry): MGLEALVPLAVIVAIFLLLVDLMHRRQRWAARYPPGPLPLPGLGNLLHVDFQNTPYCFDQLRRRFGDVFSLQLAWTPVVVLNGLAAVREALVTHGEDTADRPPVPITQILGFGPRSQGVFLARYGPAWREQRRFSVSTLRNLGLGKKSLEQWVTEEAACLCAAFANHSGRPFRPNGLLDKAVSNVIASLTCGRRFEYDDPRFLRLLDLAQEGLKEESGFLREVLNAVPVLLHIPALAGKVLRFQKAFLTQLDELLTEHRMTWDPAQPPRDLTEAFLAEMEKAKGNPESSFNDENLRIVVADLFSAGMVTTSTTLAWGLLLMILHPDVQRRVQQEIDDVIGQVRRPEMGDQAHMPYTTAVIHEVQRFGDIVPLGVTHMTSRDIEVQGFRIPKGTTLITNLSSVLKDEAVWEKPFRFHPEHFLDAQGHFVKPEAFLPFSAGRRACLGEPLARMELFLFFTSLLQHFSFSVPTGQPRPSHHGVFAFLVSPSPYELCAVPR

CC[C@H](C)[C@H](NC(=O)[C@H](CCC(=O)O)NC(=O)C(C)(C)NC(=O)[C@@H](NC(=O)C1(N)CCCC1)C(C)C)C(=O)N[C@@H](CCC(N)=O)C(=O)N[C@@H](CC(C)C)C(=O)N[C@@H](CC(C)C)C(=O)N[C@@H](Cc1c[nH]cn1)C(=O)N[C@@H](CCC(N)=O)C(=O)N[C@@H](CCCCNC(=N)N)C(=O)N[C@@H](C)C(=O)N[C@H]1CCCCNC(=O)C[C@@H](C(N)=O)NC(=O)[C@H](CC(N)=O)NC(=O)[C@H](CC(C)C)NC(=O)[C@H](Cc2c[nH]c3ccccc23)NC1=O [SEQ ID NO: 19, H-Ac5c-Val-Aib-Glu-Ile-Gln-Leu-Leu-His-Gln-Har-Ala-Lys( )-Trp-Leu-Asn-Asp( )-NH2] (H-[Ac5c]V[Aib]EIQLLHQ[hArg]AKWLND-NH2; lactam 13-17)
effect on CYP2D6 activity in words: absence of any inhibitory effect on CYP2D6 activity
CYP2D6 activity (% of vehicle) (10 μM compound, dextrorphan formation rate): 90 % of vehicle
